We go through 8 compounds from patent US12139474B2, “LPA receptor antagonists and uses thereof” (Gilead Sciences, Inc., priority 2020, dated 2024).

For this experiment, the target named is T1, human LPAR1 (Homo sapiens, UniProt Q92633).
T1 construct: host or cells: CHO-K1
The experiment is described as follows: LPAR1 intracellular calcium mobilization assay (antagonist mode). Type of experiment: cell-based. Conditions: CHO-K1 EDG2 cells expressing human LPAR1; 60 min pre-incubation with compound, then LPA 18:2 at EC80 (100 nM); FLIPR calcium signal. As to the method:
In vitro LPAR1 activity was measured in an intracellular calcium mobilization assay.
CHO-K1 EDG2 cells (DiscoverX cat #93-0644C2) expressing human LPAR1 (NM_001401.3) were seeded in a total volume of 25 μL of Dulbecco's Modification of Eagle's Medium (DMEM) with 10% Fetal Bovine Serum, 1× PenStrepGlutamine, 300 ug/ml Hygromycin, and 800 ug/ml G418 into 384-well tissue culture plate (Grenier #781091) at 15,000 cells/well and incubated at 37° C. overnight. Prior to testing, 25 μL Calcium Loading Dye Component A (FLIPR Calcium 6 Assay Kit Molecular Device #R8190) and 2.5 mM Probenecid (Invitrogen #P36400, prepared fresh) in Hank's Balanced Salt Solution (Corning #21-023-CV), 20 mM HEPES (Corning #25-060-CI), 0.1% Bovine Serum Albumin (Sigma-Aldrich #A7906-500G) was add to the cells for 60 minutes at 37° C.
Agonist dose curves of LPA 18:2 (Avanti Polar Lipids cat #857138, 0.5 nM to 10 μM) were recorded to determine the LPA 18:2 EC80 for subsequent antagonist assays. For agonist dose curves, cells were removed from the incubator 2 hours after dye loading and transferred to the FLIPR Tetra instrument (Molecular Devices, San Jose, CA). Calcium mobilization was monitored for 5 min and 10 μL 6× LPA in HBSS/20 mM Hepes/0.1% bovine serum albumin (BSA) was added to the cells 5 seconds into the assay.
To determine the LPAR1 antagonist activity of test compounds, cells were pre-incubated with test compound at a dose range of 0.5 nM to 10 μM, followed by LPA at EC80 concentration (100 nM). After dye loading, cells were removed from the incubator and 0.3 μL of 200× antagonist was added. Cells were incubated for 60 minutes at 37° C. Antagonist activity was measured on a FLIPR Tetra. Calcium mobilization was monitored for 3.5 minutes and 10 μL 6× EC80 LPA in HBSS, 20 mM HEPES, and 0.1% BSA was added to the cells 5 seconds into the assay. Signal amplitude (Maximum minus minimum) values were plotted against log10 of antagonist concentration using Dose Response Tool (Gilead Sciences Inc.) to determine EC50.
To assess the antagonistic potential of exemplified compounds EC50 values were determined for Compounds 1 to 32 in the LPAR1 calcium mobilization assay. The compound numbers correspond to the compound numbers in Examples 1 to 33.
For orientation: Calcium flux is commonly read through the fluorescence of an indicator in the cells.

T1 sequence (Q92633 whole entry): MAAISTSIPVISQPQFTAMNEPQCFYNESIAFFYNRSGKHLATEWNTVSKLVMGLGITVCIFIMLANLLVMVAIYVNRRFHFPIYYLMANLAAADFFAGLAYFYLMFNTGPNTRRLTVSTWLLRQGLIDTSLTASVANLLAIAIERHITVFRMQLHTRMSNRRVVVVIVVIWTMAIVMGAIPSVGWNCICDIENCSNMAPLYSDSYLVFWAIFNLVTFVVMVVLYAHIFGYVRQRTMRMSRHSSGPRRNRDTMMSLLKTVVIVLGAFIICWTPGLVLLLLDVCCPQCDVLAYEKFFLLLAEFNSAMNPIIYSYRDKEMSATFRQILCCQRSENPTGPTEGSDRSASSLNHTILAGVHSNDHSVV

By EC50 is commonly meant the concentration at which the effect is half-maximal. As to `C[C@@H](OC(=O)Nc1c(-c2ccc3c(n2)COC(=O)N3)nnn1C)c1cccnc1Cl` [Compound 25, [(1R)-1-(2-chloro-3-pyridyl)ethyl] N-[3-methyl-5-(2-oxo-1,4-dihydropyrido[3,2-d][1,3]oxazin-6-yl)triazol-4-yl]carbamate], the EC50 amounted to 140 nM.

With `CCC1Oc2nc(-c3nnn(C)c3NC(=O)O[C@H](C)c3cccnc3Cl)ccc2NC1=O` (stereo partly drawn) [Compound 26, (R)-1-(2-chloropyridin-3-yl)ethyl (4-(3-ethyl-2-oxo-2,3-dihydro-1H-pyrido[2,3-b][1,4]oxazin-6-yl)-1-methyl-1H-1,2,3-triazol-5-yl)carbamate], the 50% effective concentration (EC50) is 3780 nM.

As to `C[C@@H](OC(=O)Nc1c(-c2ccc3c(n2)OC(c2ccccc2)C(=O)N3)nnn1C)c1cccnc1Cl` (stereo partly drawn) [Compound 27, (R)-1-(2-chloropyridin-3-yl)ethyl (1-methyl-4-(2-oxo-3-phenyl-2,3-dihydro-1H-pyrido[2,3-b][1,4]oxazin-6-yl)-1H-1,2,3-triazol-5-yl)carbamate], the EC50 came out at 135 nM.

For the compound `C[C@@H](OC(=O)Nc1c(-c2nc3c(cc2F)NC(=O)CO3)nnn1C)c1cccnc1Cl` [Compound 28, (R)-1-(2-chloropyridin-3-yl)ethyl (4-(7-fluoro-2-oxo-2,3-dihydro-1H-pyrido[2,3-b][1,4]oxazin-6-yl)-1-methyl-1H-1,2,3-triazol-5-yl)carbamate], the EC50 worked out at 660 nM.

Take `C[C@@H](OC(=O)Nc1c(-c2cc(F)c3c(c2)CCC(=O)N3)nnn1C)c1cccnc1Cl` [Compound 29, (R)-1-(2-chloropyridin-3-yl)ethyl (4-(8-fluoro-2-oxo-1,2,3,4-tetrahydroquinolin-6-yl)-1-methyl-1H-1,2,3-triazol-5-yl)carbamate]: the EC50 amounted to 5 nM.

Take `C[C@@H](OC(=O)Nc1c(-c2ccc3c(n2)OC(C(F)(F)F)C(=O)N3)nnn1C)c1cc(F)cnc1Cl` (stereo partly drawn) [Compound 30, (R)-1-(2-chloro-5-fluoropyridin-3-yl)ethyl (1-methyl-4-(2-oxo-3-(trifluoromethyl)-2,3-dihydro-1H-pyrido[2,3-b][1,4]oxazin-6-yl)-1H-1,2,3-triazol-5-yl)carbamate]: the EC50 was under 5 nM.

Turning to `CC1Oc2nc(-c3nnn(C)c3NC(=O)O[C@H](C)c3cc(F)cnc3Cl)ccc2NC1=O` (stereo partly drawn) [Compound 31, (R)-1-(2-chloro-5-fluoropyridin-3-yl)ethyl (1-methyl-4-(3-methyl-2-oxo-2,3-dihydro-1H-pyrido[2,3-b][1,4]oxazin-6-yl)-1H-1,2,3-triazol-5-yl)carbamate], the EC50 is under 5 nM.

For `CC1Oc2nc(-c3nnn(C)c3NC(=O)O[C@H](C)c3cc(F)cnc3F)ccc2NC1=O` (stereo partly drawn) [Compound 32, (R)-1-(2,5-difluoropyridin-3-yl)ethyl (1-methyl-4-(3-methyl-2-oxo-2,3-dihydro-1H-pyrido[2,3-b][1,4]oxazin-6-yl)-1H-1,2,3-triazol-5-yl)carbamate], the EC50 was found to be 3780 nM.
